Like-named read-outs stand apart in the source and are kept apart here.
What was measured:
[1] = system: β3GlcNAcT; test: β3GlcNAcT acceptor specificity; conditions: acceptor substrate; lactose (4) = 100%
Method: Both enzymes, β4GalT-GalE and β3GlcNAcT, were over expressed in E. coli AD202 in a large-scale fermentor (100 L). Bacteria were cultured in 2YT medium and induced with iso-propyl-thiogalactopyranoside (IPTG) to ultimately produce 8-10 g of bacterial cell paste/L cell media. The enzymes were then released from the cells by a microfluidizer and were solubilized in Tris buffer (25 mM, pH 7.5) containing manganese chloride (10 mM) and Triton X (0.25%) to reach enzymatic activities of about 50 U/L and 115 U/L of cell culture β4GalT-GalE and β3GlcNAcT, respectively.

[2] = molecular target: T1, chST6GalNAc-I (Gallus gallus, UniProt Q92183); test: chST6GalNAc-I activity on small acceptor molecules; assay type: biochemical, chicken; conditions: α-D-galacto derivative as acceptor
T1 construct: made in house; host or cells: insect cells
Description: The inventors have previously reported the cloning, expression, and characterization of chicken ST6GalNAc-I and its use in preparative synthesis of the O-linked sialoside antigens, STn-, α(2-6)SiaT-, α(2-3)SiaT- and Di-SiaT-antigen. Blixt, O.; Allin, K.; Pereira, L.; Datta, A. and Paulson, J. C., J. Am. Chem. Soc. 2002, 124, 5739-5746. Briefly, the recombinant enzyme was expressed in insect cells and purified by CDP-sepharose affinity chromatography to generate approximately 10 U/L of cell culture.

[3] = system: anti-carbohydrate antibodies in sera of metastatic breast cancer patients; test: glycan array binding of antibodies in sera of metastatic breast cancer patients; design: species or system human; conditions: sera diluted 1:25
Method: Individual (not pooled) sera were collected from 9 patients who were diagnosed with metastatic breast cancer (MBC). Blood samples were collected before treatment, so that therapeutic intervention would not interfere with patient immune responses. One patient with breast cancer but with good prognosis (IDC, Stage 1) was also included in the study. As control, or “healthy” sera, sera from ten healthy individuals, 5 female and 5 male, with no known malignancies was collected.
(§1) Sera were diluted 1:25 with PBS containing 3% BSA, and placed on the glycan array slide in humidified chamber at room temperature for 90 min. The glycan array slide was then rinsed gently with PBS/0.05% Tween, incubated with biotinylated goat antibody against human IgG, IgM and IgA, rinsed in PBS/0.05% Tween, and incubated with streptavidin-Alexa488 fluorescent dye. Following rinses in PBS/0.05% Tween and H2O, glycan array slides were dried and scanned using the commercial DNA array scanner. […] Signal to background was typically greater 50:1 and no background subtractions were performed. Data were plotted using MS Excel software.

[4] = system: serum antibodies of xenotransplant recipients; test: glycan array binding of antibodies in sera of recipients of porcine fetal pancreas islet-like cell clusters; design: species or system human; conditions: before and 1, 6, 12 months after transplantation
Method: In 1991-1994, several diabetic (I) patients received transplantation of porcine fetal pancreas islet-like cell clusters (ICC). See, Groth, C. G. et al. Transplantation of porcine fetal pancreas to diabetic patients, The Lancet 344: 1402-4 (1994). The inventor analyzed serum from three of these patients before transplant (t=0), 1 months after (t=1), 6 months after (t=2) and 12 months after (t=3) transplant.
as §1, with “as needed” for “1:25”

[5] = system: 2G12; test: glycan array binding of anti-HIV 2G12 monoclonal antibody; design: species or system human
[6] = molecular target: Concanavalin A (Canavalia ensiformis, UniProt P02866); conditions: printing times up to 5 hours
Method: Glycan Binding Protein binding assay. Printed slides were analyzed without any further modification of the surface. […] GBP's were added at a concentration of 5-50 μg/mL in buffer (usually PBS containing 0.005-0.5% Tween-20). […] Slides were subsequently washed by successive rinses in (i) PBS-Tween (0.05%), (ii) PBS and (iii) de-ionized water, then immediately subjected to imaging.
Image acquisition and signal processing. Fluorescence intensities were detected using a ScanArray 5000 (Perkin Elmer, Boston, Mass.) confocal scanner and image analyses were carried out using ImaGene image analysis software (BioDiscovery Inc, El Segundo, Calif.). Signal to background was typically greater than 50:1 and no background subtractions were performed.
Binding of fluorescein-labeled concanavalin A (con A) was used as a measure of ligand coupling.

T1 sequence (Q92183 whole entry): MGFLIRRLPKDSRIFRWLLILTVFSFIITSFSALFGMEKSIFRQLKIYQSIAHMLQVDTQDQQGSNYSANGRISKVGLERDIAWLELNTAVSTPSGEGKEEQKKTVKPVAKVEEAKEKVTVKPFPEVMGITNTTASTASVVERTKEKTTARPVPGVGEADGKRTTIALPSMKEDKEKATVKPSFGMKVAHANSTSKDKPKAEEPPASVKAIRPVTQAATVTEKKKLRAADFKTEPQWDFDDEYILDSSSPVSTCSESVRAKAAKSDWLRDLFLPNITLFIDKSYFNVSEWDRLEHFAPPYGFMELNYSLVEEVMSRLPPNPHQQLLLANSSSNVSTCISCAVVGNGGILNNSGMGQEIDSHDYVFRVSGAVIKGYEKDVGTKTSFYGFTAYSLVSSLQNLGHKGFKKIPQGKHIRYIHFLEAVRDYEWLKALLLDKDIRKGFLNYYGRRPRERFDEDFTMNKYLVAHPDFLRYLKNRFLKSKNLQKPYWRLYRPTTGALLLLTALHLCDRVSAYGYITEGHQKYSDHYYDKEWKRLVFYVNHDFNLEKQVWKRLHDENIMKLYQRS

OCC1O[C@@H](O)C(O)[C@@H](O)[C@@H]1O[C@@H]1OC(CO)[C@H](O)[C@H](O)C1O (stereo partly shown) [Acceptor 4, Galβ(1-4)Glc] was tested, and the “Relative enzyme activity (%) β(1-3)GlcNAcT-activity” value [1] was 100%.

With O=[N+]([O-])c1ccc(O[C@@H]2OC(CO)[C@@H](O[C@@H]3OC(CO)[C@H](O)[C@H](O)C3O)[C@H](O)C2O)cc1 (stereo partly shown) [Compound 5] the “Relative enzyme activity (%) β(1-3)GlcNAcT-activity” value [1] was 945%.

CC(=O)N[C@H]1C(O)O[C@H](CO)[C@H](O)[C@@H]1O (stereo partly drawn) [D-GalNAc] was tested, and the “chST6GalNAc-I activity, cpm” value [2] was 0 cpm and the “chST6GalNAc-I activity, nmol/mg × min^−1” value [2] was 0.00 nmol/mg × min^−1.

With CC(=O)N[C@H]1[C@H](O[C@H]2[C@@H](O)[C@@H](CO)O[C@@H](O[C@H]3[C@H](O)[C@@H](O)C(O)O[C@@H]3CO)[C@@H]2O)O[C@H](CO)[C@@H](O)[C@@H]1O (stereo partly drawn) [LNT-2, GlcNAc-beta3-Gal-beta4-Glc-beta] the “binding by / level of serum antibodies in metastatic breast cancer patients versus healthy individuals” value [3] was “bind and higher than in the healthy individuals”.

“Fucose-alpha2-Gal-beta3-GalNAc-beta3-Gal-alpha4-Gal-beta4-Glc [Globo-H]” was tested, and the “binding by / level of serum antibodies in metastatic breast cancer patients versus healthy individuals” value [3] was “bind and higher than in the healthy individuals”.

“Gal-beta3-GalNAc-beta4-[Neu5Ac-alpha3]-Gal-beta4-Glc-beta [GM1]” was tested, and the “binding by / level of serum antibodies in metastatic breast cancer patients versus healthy individuals” value [3] was “bind and higher than in the healthy individuals”.

With “Galα1-3Galβ1-4(Fucα1-3)GlcNAcβSp [Glycan 34]” the “reactivity of serum antibodies of xenotransplant recipients” value [4] was “clearly exhibit an immune response”.

With Galβ1-4(Fucα1-3)GlcNAcβSp [Glycan 65] the “reactivity of serum antibodies of xenotransplant recipients” value [4] was “do not have antibodies”.

With Galβ(1-4)GlcNAc [Acceptor 6] the “Relative enzyme activity (%) β(1-3)GlcNAcT-activity” value [1] was 7-8%.

For “Manα1-2Manα1-2Manα1-3(Manα1-2Manα1-3(Manα1-2Manα1-6)Manα1-6)Manβ1-4GlcNAcβ1-4GlcNAcβSp [Glycan 145]”, the “binding of 2G12” value ([5]; listed as Man9) was “relatively weakly bound” and the “binding of 2G12” value ([5]; listed as Man-9-N-glycans) was “smaller level of binding”.

For “Manα1-2Manα1-3(Manα1-2Manα1-6)ManαSp [Glycan 136]”, the “binding of 2G12” value [5] was “strong binding”, the “Rel. spec. (relative binding activity of 2G12)” value ([5]; 2G12 30 μg/mL pre-complexed with goat anti-human-IgG-FITC) was “+++ (+++ >25,000)” and the “variation in maximal binding of con A” value [6] was “less than 10%”.

For “Manα1-2Manα1-6(Manα1-3)Manα1-6(Manα1-2Manα1-3)Manβ1-4GlcNAcβ1-4GlcNAcβSp [Glycan 144]”, the “binding of 2G12” value [5] was “strong preference”.

“Manα1-3Manα1-6(Manα1-2Manα1-3)Manβ1-4GlcNAcβ1-4GlcNAcβSp [Glycan 140]” was tested, and the “binding of 2G12” value [5] was “did not support binding at all”.

“Manα1-6(Manα1-2Manα1-3)Manα1-6(Manα1-2Manα1-3)Manβ1-4GlcNAcβ1-4GlcNAcβSp [Glycan 143]” was tested, and the “binding of 2G12” value [5] was “did not support binding at all”.

“Manα1-6(Manα1-3)Manα1-6(Manα1-2Manα1-3)Manβ1-4GlcNAcβ1-4GlcNAcβSp [Glycan 142]” was tested, and the “binding of 2G12” value [5] was “did not support binding at all”.

With Neu5Acα2-6GalNAcα- the “binding by / level of serum antibodies in metastatic breast cancer patients versus healthy individuals” value [3] was “significantly higher levels”.

With Neu5Gc(2-6)GalNAc the “binding by / level of serum antibodies in metastatic breast cancer patients versus healthy individuals” value [3] was “bind”.

B1: Ceruloplasmine (protein, UniProt P00450 20-1065, looked up)
Ceruloplasmin: KEKHYYIGIIETTWDYASDHGEKKLISVDTEHSNIYLQNGPDRIGRLYKKALYLQYTDETFRTTIEKPVWLGFLGPIIKAETGDKVYVHLKNLASRPYTFHSHGITYYKEHEGAIYPDNTTDFQRADDKVYPGEQYTYMLLATEEQSPGEGDGNCVTRIYHSHIDAPKDIASGLIGPLIICKKDSLDKEKEKHIDREFVVMFSVVDENFSWYLEDNIKTYCSEPEKVDKDNEDFQESNRMYSVNGYTFGSLPGLSMCAEDRVKWYLFGMGNEVDVHAAFFHGQALTNKNYRIDTINLFPATLFDAYMVAQNPGEWMLSCQNLNHLKAGLQAFFQVQECNKSSSKDNIRGKHVRHYYIAAEEIIWNYAPSGIDIFTKENLTAPGSDSAVFFEQGTTRIGGSYKKLVYREYTDASFTNRKERGPEEEHLGILGPVIWAEVGDTIRVTFHNKGAYPLSIEPIGVRFNKNNEGTYYSPNYNPQSRSVPPSASHVAPTETFTYEWTVPKEVGPTNADPVCLAKMYYSAVEPTKDIFTGLIGPMKICKKGSLHANGRQKDVDKEFYLFPTVFDENESLLLEDNIRMFTTAPDQVDKEDEDFQESNKMHSMNGFMYGNQPGLTMCKGDSVVWYLFSAGNEADVHGIYFSGNTYLWRGERRDTANLFPQTSLTLHMWPDTEGTFNVECLTTDHYTGGMKQKYTVNQCRRQSEDSTFYLGERTYYIAAVEVEWDYSPQREWEKELHHLQEQNVSNAFLDKGEFYIGSKYKKVVYRQYTDSTFRVPVERKAEEEHLGILGPQLHADVGDKVKIIFKNMATRPYSIHAHGVQTESSTVTPTLPGETLTYVWKIPERSGAGTEDSACIPWAYYSTVDQVKDLYSGLIGPLIVCRRPYLKVFNPRRKLEFALLFLVFDENESWYLDDNIKTYSDHPEKVNKDDEEFIESNKMHAINGRMFGNLQGLTMHVGDEVNWYLMGMGNEIDLHTVHFHGHSFQYKHRGVYSSDVFDIFPGTYQTLEMFPRTPGIWLLHCHVTDHIHAGMETTYTVLQNEDTKSG
modifications: N-glycans
notes: mixture of bi and tri- and tetra-antenary N-glycans
With B1 the “binding by / level of serum antibodies in metastatic breast cancer patients versus healthy individuals” value [3] was “bind and significantly higher levels”.

— patent publication US20070059769A1, “High throughput glycan microarrays” (priority 2004, published 2007)
